# Several values for one entry are separate records, joined by “and”; a condition that tells them apart may be missing. Equal entries are not always repeated.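 48-hour exposure; five concentrations; linearly interpolated endpoints. The concentration for 50% growth inhibition is given as GI50. TGI: concentration producing complete growth inhibition.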
# Assays:
# Test in all cases: inhibition of tumour cell growth, NCI panel, 48 h
# [1] = tested on: BT-549 breast
# [2] = tested on: DU-145 prostate
# [3] = tested on: HS 578T breast
# [4] = tested on: MCF7 breast
# [5] = tested on: MDA-MB-435
# [6] = tested on: NCI/ADR-RES ovarian
SMILES,GI50 [1],TGI [1],GI50 [2],TGI [2],GI50 [3],TGI [3],GI50 [4],TGI [4],GI50 [5],TGI [5],GI50 [6],TGI [6]
O=[N+]([O-])c1ccc(N/N=C\c2cc(Cl)ccc2O)nc1,3.23 µM,14.9 µM,1.22 µM,13.1 µM,7.33 µM,> 100 µM,2.73 µM,> 100 µM,1.76 µM,> 100 µM,0.388 µM,8.32 µM
COC(=O)Nc1nc2ccc(C(=O)c3ccc[nH]3)cc2[nH]1,,> 100 µM,,> 23.2 µM,,> 100 µM,,> 100 µM,,0.359 µM,,9.01 µM
COc1cc(O)c(C(=O)/C=C/c2ccccc2)c(OC)c1,,16.2 µM,,21 µM,,18.2 µM,,24.2 µM,,25.5 µM,,14.4 µM
COc1cc2c3c(n(C)c(=O)c2cc1OC)-c1cc2c(cc1/C3=C\CCCCN)OCO2,,,10.5 µM,31.4 µM,,,3.46 µM,12.7 µM,5.56 µM,20.3 µM,4.74 µM,18.1 µM
O=C(CCCc1c[nH]c2ccccc12)NC1CC(=O)c2c(Br)sc(Br)c21 (centres undefined),17.4 µM,37.1 µM,23.5 µM,> 100 µM,6.44 µM,51.3 µM,10.1 µM,29.5 µM,17.8 µM,57.3 µM,23.3 µM,70.3 µM
COc1ccc(N(C)c2nc(C)nc3ccccc23)cc1,< 0.01 µM,36.9 µM,,,< 0.01 µM,> 100 µM,< 0.01 µM,> 100 µM,< 0.01 µM,< 0.01 µM,< 0.01 µM,
O=C1c2ccccc2-c2c1c1ccccc1c(=O)n2CCO,,> 100 µM,,> 100 µM,,> 100 µM,,> 100 µM,,> 100 µM,,> 100 µM
O/N=C1\CCc2cc(-c3nc(C4CCNCC4)[nH]c3-c3ccncc3)ccc21,> 25 µM,> 25 µM,> 25 µM,> 25 µM,> 25 µM,> 25 µM,> 25 µM,> 25 µM,12.1 µM,> 25 µM,> 25 µM,> 25 µM
O=C1c2cc3c(cc2-c2c1c1cc(Cl)c(Cl)cc1c(=O)n2CCCn1ccnc1)OCO3,0.0114 µM,28.1 µM,< 0.01 µM,59.9 µM,17.1 µM,> 100 µM,< 0.01 µM,12.3 µM,0.0162 µM,> 100 µM,< 0.01 µM,11.6 µM
O=C1C=C[C@]2(C[C@@H](c3cccc(C(F)(F)F)c3)O[C@@H](c3cccc(C(F)(F)F)c3)O2)O1,1.92 µM,4.82 µM,5.72 µM,18.4 µM,12.2 µM,60.7 µM,0.389 µM,3.68 µM,1.6 µM,3.39 µM,1.9 µM,6.62 µM
Cc1ccc(-c2c(C#N)c(N)nc(N3CCOCC3)c2C#N)o1,62.9 µM,> 100 µM,43.5 µM,> 100 µM,39.2 µM,> 100 µM,64.9 µM,> 100 µM,,,33.6 µM,> 100 µM
OB([O][Hg][c]1ccccc1)[O][Hg][c]1ccccc1,0.226 µM,0.779 µM,0.873 µM,2.29 µM,,,,,0.475 µM,1.63 µM,1.69 µM,4.45 µM
COc1ccc(/C(=C/c2cc(OC)c(OC)c(OC)c2)[N+](=O)[O-])cc1,1.7 µM,3.2 µM,1.75 µM,3.14 µM,3.21 µM,21.4 µM,,,1.81 µM,3.99 µM,2.47 µM,7.55 µM
C1CCC([PH+](C2CCCCC2)C2CCCCC2[PH+](C2CCCCC2)C2CCCCC2)CC1.[Au].[CH-]1CCCCC1C1CCCC[N-]1 (centres undefined),0.294 µM,1.36 µM,0.401 µM,2.44 µM,,,,,,,2.97 µM,> 100 µM
COc1cc2cc(Oc3ccc(NC(=O)Nc4cccc(C(F)(F)F)c4)cc3)c(C)nc2cc1OCCN1CCCCC1,1.78 µM,3.28 µM,1.68 µM,3.06 µM,,,1.63 µM,3.33 µM,1.59 µM,2.94 µM,,
COc1cc(CCc2cc(NC(=O)c3ccc(N4C[C@@H](C)N[C@@H](C)C4)cc3)n[nH]2)cc(OC)c1,5.58 µM and 1.08 µM,> 10 µM and 17.2 µM,7.62 µM and 6.09 µM,> 10 µM and 18.5 µM,1.12 µM and 2.44 µM,> 10 µM and 14.4 µM,3.29 µM and 2.85 µM,> 10 µM and 15.8 µM,6.15 µM and 3.48 µM,> 10 µM and 14.2 µM,> 10 µM and 17.1 µM,> 10 µM and 36.8 µM
N#C/C(=C\c1c(-c2ccccc2)[nH]c2ccccc12)C(=O)c1ccc(Cl)cc1,5.83 µM,79.7 µM,3.54 µM,16.7 µM,1.56 µM,9.27 µM,0.753 µM,14.5 µM,,,0.575 µM,12.6 µM
ClC(=Nc1cccc2ccccc12)N(c1ccccc1)c1ccccc1,,> 100 µM,,> 100 µM,,> 100 µM,,> 100 µM,,> 100 µM,,> 100 µM
O=c1c(Cl)nnc2sc3ccccc3n12,64.9 µM,> 100 µM,57 µM,> 100 µM,85.4 µM,> 100 µM,33.6 µM,> 100 µM,42 µM,> 100 µM,13.3 µM,41.9 µM
COC(=O)[C@]12CC[C@@H](C)[C@H](C)[C@@H]1C1=CC[C@@H]3[C@@]4(C)CC(=O)[C@H](O)[C@@]5(C)COC(=C45)C[C@@]3(C)[C@]1(C)CC2,17.3 µM,33.5 µM,18.7 µM,35.1 µM,18.4 µM,45 µM,16.9 µM,35.6 µM,17 µM,32.5 µM,18.4 µM,37.6 µM
CC12OC(C(=O)C13CC3)C1C(=O)c3ccccc3C(=O)C12 (centres undefined),36.2 µM,76.9 µM,,,22.6 µM,63.9 µM,21.2 µM,78.6 µM,41.4 µM,> 100 µM,24.5 µM,77 µM

# Reference: PubChem BioAssay (NCI)
